One assay has as its system FMRFa-R. The conditions noted are these: expressed FMRFa-R protein, cited from earlier work. As to the method:
In contrast, when the small, non-aromatic residue A was substituted for F, strong contacts which anchored FMRF-NH2 in the FMRFa-R binding pocket were lost, which substantially weakened ligand-receptor interactions (Figure 5, Tables 5 and 6). In addition, the F ... || Next, the effect of the analog SDNAMRF-NH2 was measured on heart rate at 1 µM. SDNAMRF-NH2 increased adult heart rate by 48±10%, a significant effect similar to SDNFMRF-NH2 (Figure 12, Table 14). The effect of the peptide analog was analyzed in adult because it is a developmental stage in which a robust response occurs which thus allows for subtle changes to be observed. […] Past studies analyzed the effects of some or all of these peptides in a bioassay; yet no report to date investigated th ...

Assay [1] has as its system adult, larval, and pupal heart. Briefly: in vivo semi-isolated heart rate assay. The arrangement: species or system Drosophila melanogaster. As to conditions: peptide 1 µM; for % increase in heart rate, Adult: adult heart (1 day adults); for % increase in heart rate, Adult / % increase in heart rate, Larval / % increase in heart rate, Pupal: maximum response within 10-minute recording, mean ± S.E.M., n≥6, basal heart rate = 100%; for % increase in heart rate, Larval: larval heart (wandering 3rd instar larvae); for % increase in heart rate, Pupal: pupal heart (white prepupae). As to the method:
D. melanogaster Oregon R strain flies were maintained on cornmeal molasses media at 24°C under a 12 hour light/dark cycle. Animals analyzed were wandering 3rd instar larvae, white prepupae, and 1 day adults. The effects of peptides and physiological saline, the carrier, were measured on both females and males; no sex-specific response was observed. The in vivo semi-isolated heart rate assays were performed according to a previously reported protocol. The rate of heart contractions for each animal was measured prior to application of a peptide (1 µM) or saline, the carrier, to provide a measure of basal rate. Animals (n≥6) were used only once. During and after delivery of the peptide or saline, contractions were continuously recorded for a 10-minute time period. The data analyzed were the maximum responses within the 10-minute recording period reported as mean values ± S.E.M. Data are reported as % basal heart rate where the frequency of contractions before application of peptide or saline is considered a measure of the baseline or basal level. Effects of peptides were compared to saline using Single Factor ANOVA with significance set at p ≤ 0.01; a peptide was considered to be active if its effects were statistically different from saline. The statistical outcomes were identical when calculated using two different data packages, Microsoft Excel and IBM SPSS.

[2] abbreviates: Chinese hamster ovary cells, read-out: EC50, ligand-FMRFa-R binding.
The mark [3] stands for this setting: read-out: EC50, peptides bind FMRFa-R.

Like-named read-outs stand apart in the source and are kept apart here.

For the substance AMRF-NH2 [analog replacing F1 with A], the EC50 with FMRFa-R (setting [2]) is 3220 nM.
Turning to “DPKQDFMRF-NH2 [D. melanogaster FMRF-NH2 peptide encoded in dFMRFa]”, the concentration for a half-maximal effect (EC50) in the assay with FMRFa-R (setting [3]) is 2 nM. Also, in assay [1], the “% increase in heart rate, Adult” value is given as 44±11%; the “% increase in heart rate, Larval” value was found to be 20±5%; the “% increase in heart rate, Pupal” value amounted to 21±5%.
With “FMRF-NH2 [conserved C-terminal tetrapeptide; molluscan cardioexcitatory tetrapeptide]”, the EC50 in the assay with FMRFa-R (setting [2]) is 28 nM. Also, in assay [1], the “% increase in heart rate, Adult” value turned out to be 37±11%; the “% increase in heart rate, Larval” value was found to be 28±8%; the “% increase in heart rate, Pupal” value is recorded as 17±4%.
Regarding “PDNFMRF-NH2 [D. melanogaster FMRF-NH2 peptide encoded in dFMRFa]”, the half-maximal effective concentration (EC50) in the assay on FMRFa-R (setting [3]) is 1.8 nM. In addition, in assay [1], the “% increase in heart rate, Adult” value was found to be 51±12%; the “% increase in heart rate, Larval” value stood at 26±5%; the “% increase in heart rate, Pupal” value is recorded as 27±7%. For the same substance, the “heart rate return to baseline” value in assay [1] (pupal heart, recording period) is reported as “did not return to baseline within the recording period”.
On to “SDNAMRF-NH2 [designed analog of SDNFMRF-NH2 with F to A substitution]”, for which, in the assay with FMRFa-R (setting [2]), the concentration for a half-maximal effect (EC50) is 102 nM. Further, the “% increase in heart rate, Adult” value in assay [1] is 48±10%.
As for “SDNFMRF-NH2 [D. melanogaster FMRF-NH2 peptide encoded in dFMRFa]”, the EC50 with FMRFa-R (setting [2]) was 1.9 nM. In assay [1], the “% increase in heart rate, Adult” value amounted to 39±11%; the “% increase in heart rate, Larval” value turned out to be 24±8%; the “% increase in heart rate, Pupal” value was determined as 15±4%.
For “SPKQDFMRF-NH2 [D. melanogaster FMRF-NH2 peptide encoded in dFMRFa]”, the EC50 in the assay with FMRFa-R (setting [3]) is 2.5 nM. For the same substance, in assay [1], the “% increase in heart rate, Adult” value turned out to be 32±8%; the “% increase in heart rate, Larval” value came to 23±6%; the “% increase in heart rate, Pupal” value is recorded as 12±1%.
For the substance “TPAEDFMRF-NH2 [D. melanogaster FMRF-NH2 peptide encoded in dFMRFa]”, the EC50 in the assay on FMRFa-R (setting [3]) is 2.8 nM. Moreover, in assay [1], the “% increase in heart rate, Adult” value came to 40±2%; the “% increase in heart rate, Larval” value stood at 20±4%; the “% increase in heart rate, Pupal” value came out at 26±8%.
For “YMRF-NH2 [analog in which Y replaced F1]”, in the assay on FMRFa-R (setting [2]), the EC50 was 31 nM.

The record behind these values is publication PMC3775761, “Structure-Activity Relationships of FMRF-NH2 Peptides Demonstrate A Role for the Conserved C Terminus and Unique N-Terminal Extension in Modulating Cardiac Contractility” (PLoS ONE, 2013).
